Results published in patent US9115072B2, “Compounds and method for reducing uric acid” (WELLSTAT THERAPEUTICS CORPORATION, priority 2008, dated 2015).

Biological target: T1, human URAT1 (Homo sapiens, UniProt Q96S37)
T1 construct: The full-length hURAT1 cDNA was obtained from the vector pCMV6-XL5 and subcloned into the expression vector pCMV6-Neo
T1 sequence (Q96S37 1-553): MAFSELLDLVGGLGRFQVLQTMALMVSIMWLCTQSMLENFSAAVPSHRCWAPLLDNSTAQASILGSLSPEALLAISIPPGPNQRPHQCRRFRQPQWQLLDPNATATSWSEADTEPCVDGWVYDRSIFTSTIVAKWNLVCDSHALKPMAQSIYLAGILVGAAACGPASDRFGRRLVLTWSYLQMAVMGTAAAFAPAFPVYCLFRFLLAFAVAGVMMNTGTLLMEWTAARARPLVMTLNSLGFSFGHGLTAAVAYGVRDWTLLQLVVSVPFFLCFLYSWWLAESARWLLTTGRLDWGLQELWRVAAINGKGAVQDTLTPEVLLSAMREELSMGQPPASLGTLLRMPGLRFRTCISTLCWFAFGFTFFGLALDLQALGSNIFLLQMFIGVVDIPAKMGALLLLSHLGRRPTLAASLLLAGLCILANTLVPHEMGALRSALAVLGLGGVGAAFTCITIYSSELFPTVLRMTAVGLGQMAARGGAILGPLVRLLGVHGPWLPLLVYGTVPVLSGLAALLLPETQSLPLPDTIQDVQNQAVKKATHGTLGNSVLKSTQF
Assay: URAT1 inhibition assay, [8-14C] urate uptake in hURAT1-HEK cells
Format: cell-based
Conditions: 50 μM [8-14C] urate
Description: A suitable assay involves transfection of cells (e.g. human embryonic kidney cells; “HEK”) with a vector encoding human URAT1, followed by determination of the ability of transfected cells to take up radiolabeled uric acid. The activity of compounds as URAT1 inhibitors is evaluated by their ability to block uric acid uptake by transfected cells.
Urate (50-60 mCi/mmol; American Radio Chemicals, Cat. No. ARC0513).
Plasmid vector pCMV6-XL5 containing hURAT1 cDNA (Cat. No. SC125624) and the expression vector pCMV6-Neo (Cat. No. pCMVNEO) were obtained from OriGene Technologies, Inc. The full-length hURAT1 cDNA was obtained from the vector pCMV6-XL5 and subcloned into the expression vector pCMV6-Neo to create the hURAT1 expression plasmid pCMV6-hURAT1. The sequences were verified by automatic DNA sequencing.
For transfection experiments, cells were plated on 60 mm dishes in 1 ml media per dish. […] Stable transfectants expressing hURAT1 (herein after referred as hURAT1-HEK cells) or cells having only the expression vector pCMV6-Neo (herein after referred as mock-HEK cells) were verified using reverse transcription polymerase chain reaction (RT-PCR) methods.
Before the uptake assay started, the culture medium was removed and the cells were incubated for 5 min in 0.6 ml of HBSS. After that HBSS was removed, the prepared reaction solutions were added into each well and incubated for 5 min at room temperature. Then the reaction solution was removed, cells were washed twice with 0.6 ml of cold HBSS and lysed with 0.2 ml of 0.1 M NaOH for 20 min. […] Test compounds were dissolved in DMSO and the same concentration of DMSO was added into the wells of mock-HEK cells and the hURAT1-HEK cells that didn't contain test compounds. For each test compound, the uptake assay was performed 2 times and carried out in triplicate. Urate uptake of the cells for each test condition was presented as the average percent inhibition in comparison to the DMSO control. The radioactivity values obtained for the wells that contained DMSO were taken as 100% uptake of the cells. The observed concentration-percent inhibition data were fitted to a sigmoidal concentration-effect model, where: IC50^Slope=[(100*Conc^Slope)/% Inhibition]−Conc^Slope
Additional drug concentrations were tested for determination of IC-50 values for some compounds (Table 6).

IC50: 80 nM | inhibition at 10 µM (drug concentration typically 10 micromolar, read-out: % of Inhibition (uric acid uptake)): 95.9%
Structure (SMILES): Cc1ccc(CC(=O)O)cc1OCc1c(C)cccc1C [Compound EH, 2-(3-(2,6-Dimethylbenzyloxy)-4-methylphenyl)acetic acid]
